Assay [1] addresses hROMK (hKir1.1) (Homo sapiens (Human), UniProt P48048). In words: Thallium Flux Assay (ROMK channel functional thallium flux, FLIPR-Tetra). The assay is classed as cell-based. The settings on record: HEK293 cells stably expressing hROMK (hKir1.1); 30 min compound incubation. From the text: (§1) Several assays may be used to measure functional inhibition of the ROMK channel by compounds of the instant invention. One assay that can be used is an electrophysiology assay that measures the electrical current that is generated as potassium permeates through the channel. Another ROMK functional assay makes use of the ability of thallium to permeate through open ROMK channels and increase the fluorescence of a dye previously loaded into the cells. Under control conditions, cells loaded with dye and exposed to thallium-containing medium display a time-dependent increase in fluorescence, the rate of which depends on number of functional channels. When cells are incubated in the presence of a channel inhibitor, the increase in fluorescence is attenuated in a concentration-dependent manner, and IC50 values of inhibition by compounds can be accurately determined. This assay has been established with cell lines expressing either human, or rat ROMK channels, and operates in 384-well format.
HEK293 cells stably expressing hROMK (hKir1.1) were grown at 37° C. in a 10% CO2 humidified incubator in complete growth media: Dulbecco's Modified Eagle Medium supplemented with non-essential amino acids, Penicillin/Streptomycin/Glutamine, G418 and FBS. At >80% confluency, the media was aspirated from the flask and the sample was rinsed with 10 ml Calcium/Magnesium-free PBS. […] To dislodge the cell, the side of the flask was gently banged with a hand. The cells were triturated completely and then transferred to 25 ml complete media. The sample was then centrifuged at 1,500 rpm for 6 minutes, followed by resuspension in complete growth media and then cell concentration was determined. […] Under ideal growth conditions and appropriate tissue culture practices, this cell line is stable for 40-45 passages.
• FluxOR™ Reagent (Component A) • FluxOR™ Assay Buffer (Component B)—10× Concentrate • PowerLoad™ Concentrate (Component C)—100× Concentrate • Probenecid (Component D) Lyophilized sample is kept at −20° C. Water soluble, 100× after solubilization in 1 ml water. […] Store at 4° C. • Thallium sulfate (Tl2SO4) Concentrate (Component G)—50 mM in water. […] Can be stored at room temperature • Stimulant Buffer (prepared at 5× final concentration in 1× FluxOR™Chloride-Free Buffer): 7.5 mM Thallium sulfate and 0.75 mM Potassium sulfate (to give a final assay concentration of 3 mM Thallium 0.3 mM Potassium). Store at 4° C. when not in use. If kept sterile, this solution is good for months. Assay Protocol—
The ROMK channel functional thallium flux assay is performed in 384 wells, using the FLIPR-Tetra instrument. HEK-hKir1.1 cells are seeded in Poly-D-Lysine microplates and kept in a 37° C.-10% CO2 incubator overnight. On the day of the experiment, the growth media is replaced with the FluxOR™ reagent loading buffer and incubated, protected from light, at ambient temperature (23-25° C.) for 90 min. The loading buffer is replaced with assay buffer±test compound followed by 30 min incubation at ambient temperature, where the Thallium/Potassium stimulant is added to the microplate.
• 1. Seed HEK-hKir1.1 cells (50 μl at 20,000 cells/well) in 384-well PDL coated Microplates • 2. Allow cells to adhere overnight in humidified 37° C./10% CO2 incubator • 3. Completely remove cell growth media from microplate and replace with 25 μl loading buffer • 4. Incubate Microplate at room temperature, protected form light, for 90 min • 5. Remove loading buffer and replace with 25 μl 1× Assay Buffer±test compound. • 6. Incubate microplate at room temperature, protected form light, for 30 min • 7. […] Excitation=400 nm, Emission=460 & 580 nm. Collect data for 10 min. Data Calculation—
The fluorescence intensity of wells containing 3 μM of a standard control ROMK inhibitor of the present invention is used to define the ROMK-sensitive component of thallium flux. Fluorescence in the presence of test compounds is normalized to control values to provide % fluorescence change.

For assay [2], the target named is Kir1.1 (ROMK1) (Homo sapiens (Human), UniProt P48048). In words: Electrophysiology Assay (whole cell voltage clamp, IonWorks Quattro). The class given is cell-based. The settings on record: Chinese hamster ovary cells stably expressing Kir1.1; block during voltage step to 0 mV; 6 minutes compound incubation; read-out: EP Assay IC50.
Sequence of Kir1.1 (ROMK1) (P48048 whole entry, species assumed): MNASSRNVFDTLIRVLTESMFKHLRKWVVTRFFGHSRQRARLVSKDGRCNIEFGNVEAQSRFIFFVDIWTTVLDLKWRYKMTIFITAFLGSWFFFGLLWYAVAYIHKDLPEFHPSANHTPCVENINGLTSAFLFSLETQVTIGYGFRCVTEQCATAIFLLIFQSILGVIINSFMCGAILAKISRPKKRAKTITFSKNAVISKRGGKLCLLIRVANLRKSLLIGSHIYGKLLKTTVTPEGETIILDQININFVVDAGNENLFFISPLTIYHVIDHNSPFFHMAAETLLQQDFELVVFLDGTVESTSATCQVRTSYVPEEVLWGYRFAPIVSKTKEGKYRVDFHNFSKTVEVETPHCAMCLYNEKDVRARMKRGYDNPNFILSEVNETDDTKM
Excerpt: as §1
Chinese hamster ovary cells stably expressing Kir1.1 channels were maintained in T-75 flasks in cell culture media in a humidified 10% CO2 incubator at 37° C. Prior to an experiment, Kir1.1 expression was induced by overnight incubation with 1 mM sodium butyrate. […] After centrifugation, the cell pellet was resuspended in approximately 4.0 ml of bath solution and placed in the IonWorks® instrument. The intracellular solution consisted of (in mM): 80 K gluconate, 40 KCl, 20 KF, 3.2 MgCl2, 3 EGTA, 5 Hepes, pH 7.4. Electrical access to the cytoplasm was achieved by perforation in 0.13 mg/ml amphotericin B for 4 minutes.
Voltage protocols and current recordings were performed using the IonWorks® HT software/hardware system. Currents were sampled at 1 kHz. No correction for liquid junction potentials was used. The test pulse, consisting of a 100 ms step to 0 mV from a holding potential of −70 mV, followed by a 100 ms voltage ramp from −70 mV to +70 mV, was applied before and after a 6 minutes compound incubation period. Test compounds were prepared by diluting DMSO stock solutions into the bath solution at 3× the final concentration and placed in the instrument in 96-well polypropylene plates. Current amplitudes were measured using the IonWorks® software.

pIC50: −log10 of the molar value.

Sequence of hROMK (hKir1.1) (P48048 whole entry): as the sequence (P48048 whole entry, species assumed) above

Take `Cc1c([C@@H](O)CN2CCCC2CNCC(O)c2ccc(C#N)cn2)ccc2c1COC2=O` (single isomer, unassigned) [Example 9A]: the pIC50 in assay [1] is 6.73; in assay [2], 6.49.
The matching figures for `Cc1c([C@@H](O)CN2CCCC2CNCC(O)c2ccc(C#N)cn2)ccc2c1COC2=O` (single isomer, unassigned) [Example 9B]: 6.54 and 6.60.
The matching figures for `Cc1c([C@@H](O)CNC2C[C@H]3C[C@@H]2N(C[C@H](O)c2ccc4c(c2C)COC4=O)C3)ccc2c1COC2=O` (single isomer, unassigned) [Example 17A]: 6.30 and 5.85.
Consider `Cc1c([C@@H](O)CNC2C[C@H]3C[C@@H]2N(C[C@H](O)c2ccc4c(c2C)COC4=O)C3)ccc2c1COC2=O` (single isomer, unassigned) [Example 17B], for which, in assay [1], the pIC50 is 6.24.
`Cc1c(C(O)CN2CC[C@@H](NC[C@H](O)c3ccc4c(c3C)COC4=O)C2)ccc2c1COC2=O` (stereo in doubt) [Example 1, 5-{(1R)-1-Hydroxy-2-[(3R)-3-{[(2R)-2-hydroxy-2-(4-methyl-1-oxo-1,3-dihydro-2-benzofuran-5-yl)ethyl]amino}pyrrolidin-1-yl]ethyl}-4-methyl-2-benzofuran-1(3H)-one]: the results for the pIC50 in assay [1] and in assay [2] were 6.38 and 6.23, respectively.
For `Cc1c([C@@H](O)CNC2(C3CCN(C[C@H](O)c4ccc5c(c4C)COC5=O)C3)CCC2)ccc2c1COC2=O` (stereo partly drawn) [Example 2, 5-{(1R)-1-Hydroxy-2-[3-(1-{[(2R)-2-hydroxy-2-(4-methyl-1-oxo-1,3-dihydro-2-benzofuran-5-yl)ethyl]amino}cyclobutyl)pyrrolidin-1-yl]ethyl}-4-methyl-2-benzofuran-1(3H)-one] the same measures were 6.76 and 6.38.
The matching figures for `Cc1c([C@@H](O)CNCC2CCCN2C[C@H](O)c2ccc3c(c2C)COC3=O)ccc2c1COC2=O` (stereo partly drawn) [Example 3, 5-{(1R)-1-Hydroxy-2-[2-({[(2R)-2-hydroxy-2-(4-methyl-1-oxo-1,3-dihydro-2-benzofuran-5-yl)ethyl]amino}methyl)pyrrolidin-1-yl]ethyl}-4-methyl-2-benzofuran-1(3H)-one]: 6.75 and 6.29.
For `Cc1c(C(CO)NCC2CCCN2C[C@H](O)c2ccc3c(c2C)COC3=O)ccc2c1COC2=O` (stereo partly drawn) [Example 4, 5-{(1R)-1-Hydroxy-2-[2-({[2-hydroxy-1-(4-methyl-1-oxo-1,3-dihydro-2-benzofuran-5-yl)ethyl]amino}methyl)pyrrolidin-1-yl]ethyl}-4-methyl-2-benzofuran-1(3H)-one] the same measures were 6.28 and 6.56.
For `Cc1c([C@@H](O)CNCC2CCCCN2C[C@H](O)c2ccc3c(c2C)COC3=O)ccc2c1COC2=O` (stereo partly drawn) [Example 5, 5-{(1R)-1-Hydroxy-2-[2-({[(2R)-2-hydroxy-2-(4-methyl-1-oxo-1,3-dihydro-2-benzofuran-5-yl)ethyl]amino}methyl)piperidin-1-yl]ethyl}-4-methyl-2-benzofuran-1(3H)-one], in assay [1], the pIC50 was 7.09.
Take `Cc1c(C(CO)NCC2CCCCN2C[C@H](O)c2ccc3c(c2C)COC3=O)ccc2c1COC2=O` (stereo partly drawn) [Example 6, 5-{(1R)-1-Hydroxy-2-[2-({[2-hydroxy-1-(4-methyl-1-oxo-1,3-dihydro-2-benzofuran-5-yl)ethyl]amino}methyl)piperidin-1-yl]ethyl}-4-methyl-2-benzofuran-1(3H)-one]: the pIC50 in assay [1] is 6.84; in assay [2], 6.35.
`Cc1c([C@@H](O)CNCC2(C)CCN(C[C@H](O)c3ccc4c(c3C)COC4=O)C2)ccc2c1COC2=O` (stereo partly drawn) [Example 7, 5-{(1R)-1-Hydroxy-2-[3-({[(2R)-2-hydroxy-2-(4-methyl-1-oxo-1,3-dihydro-2-benzofuran-5-yl)ethyl]amino}methyl)-3-methylpyrrolidin-1-yl]ethyl}-4-methyl-2-benzofuran-1(3H)-one]: the pIC50 in assay [1] was 6.56.
For `Cc1c([C@@H](O)CNCC2(C)CCCN(C[C@H](O)c3ccc4c(c3C)COC4=O)C2)ccc2c1COC2=O` (stereo partly drawn) [Example 8, 5-{(1R)-1-Hydroxy-2-[3-({[(2R)-2-hydroxy-2-(4-methyl-1-oxo-1,3-dihydro-2-benzofuran-5-yl)ethyl]amino}methyl)-3-methylpiperidin-1-yl]ethyl}-4-methyl-2-benzofuran-1(3H)-one], the pIC50 in assay [1] was 6.07.
`Cc1c([C@@H](O)CN2CC[C@@H](NCC(O)c3ccc(C#N)cn3)C2)ccc2c1COC2=O` (stereo partly drawn) [Example 10, 6-(1-Hydroxy-2-((R)-1-((R)-2-hydroxy-2-(4-methyl-1-oxo-1,3-dihydroisobenzofuran-5-yl)ethyl)pyrrolidin-3-ylamino)ethyl)nicotinonitrile]: the pIC50 in assay [1] was 6.30; in assay [2], 5.69.
In turn, `Cc1c([C@@H](O)CN2CC[C@H](NCC(O)c3ccc(C#N)cn3)C2)ccc2c1COC2=O` (stereo partly drawn) [Example 11, 6-(1-Hydroxy-2-((S)-1-((R)-2-hydroxy-2-(4-methyl-1-oxo-1,3-dihydroisobenzofuran-5-yl)ethyl)pyrrolidin-3-ylamino)ethyl)nicotinonitrile] showed a pIC50 in assay [1] of 6.19.
Consider `Cc1c([C@@H](O)CN[C@@H]2CCN(CC(O)c3ccc(C#N)cn3)C2)ccc2c1COC2=O` (stereo partly drawn) [Example 12, 6-(1-Hydroxy-2-((R)-3-((R)-2-hydroxy-2-(4-methyl-1-oxo-1,3-dihydroisobenzofuran-5-yl)ethylamino)pyrrolidin-1-yl)ethyl)nicotinonitrile], for which the pIC50 in assay [1] was 6.27; in assay [2], 5.86.
As to `Cc1c([C@@H](O)CN2CC(CNS(=O)(=O)Cc3ccc(C#N)cc3)C2)ccc2c1COC2=O` [Example 16, (R)-1-(4-Cyanophenyl)-N-((1-(2-hydroxy-2-(4-methyl-1-oxo-1,3-dihydroisobenzofuran-5-yl)ethyl)azetidin-3-yl)methyl)methanesulfonamide], the pIC50 in assay [1] was 5.98.
In turn, `Cc1c([C@@H](O)CN2CCC(C3(Nc4nccn5cnnc45)CCC3)C2)ccc2c1COC2=O` (stereo partly drawn) [Example 23, 5-((1R)-2-(3-(1-([1,2,4]Triazolo[4,3-a]pyrazin-8-ylamino)cyclobutyl)pyrrolidin-1-yl)-1-hydroxyethyl)-4-methylisobenzofuran-1(3H)-one] gave a pIC50 in assay [1] of 6.40.
Still for that read-out and setting: to `Cc1c([C@@H](O)CN2CCC(CNc3nccn4cnnc34)(c3ccccc3)C2)ccc2c1COC2=O` (stereo partly drawn) [Example 24, 5-((1R)-2-(3-(([1,2,4]Triazolo[4,3-a]pyrazin-8-ylamino)methyl)-3-phenylpyrrolidin-1-yl)-1-hydroxyethyl)-4-methylisobenzofuran-1(3H)-one] belongs 6.05.
